From patent US8680282B2, “Cyclic inhibitors of carnitine palmitoyltransferase and treating cancer” (University Health Network, priority 2007, dated 2014)

Key:
SW626 = test: Cancer cell growth inhibition, SRB assay; format: cell-based, human; design: Percentage of Growth Inhibition: scale not given here; conditions: SW626; at 10 μM; SRB at Day 6; NE = no activity at 10 micromolar
Description: (§1) Human cancer cells (MCF-7, H358, H460, HCT116 p53^+/+, HCT116 p53^−/−, A172, PC-3, DU-145 and SW626) were maintained in DMEM medium containing 10% Fetal Bovine Serum (FBS) (Invitrogen, Burlington, ON, Canada) and normal cells HMEC, 184A1, NHBE and PrEC were cultured in MEGM, MEGM plus transferring and cholera toxin, BEGM and PrEGM supplemented with various growth factors (Cambrex, Charles city, Iowa, USA), respectively.
(§2) Compounds of Examples S1 to S30, and 4-(carboxymethyl)-4-(6-(3-hexyloxy)phenoxy)hexanoamido)-1,1-dimethylpiperidinium 2,2,2-trifluoroactate (“Compound A”) were tested in this example. Each of the tested compounds was dissolved in DMSO and further diluted in cell culture medium for the experiments performed. Cells were seeded into 96-well plates with 1,500-5,000 cells/well according to cell growth rate. After 24 h, DMEM medium containing 10% FBS were changed to DMEM containing 3% FBS for cancer cells. The compound was added into the cell culture at the indicated concentrations, and the final concentration of DMSO was adjusted to a final concentration of 0.1%. Cell viability was assessed by Sulforhodamine B (SRB) assay at Day 6.
(§3) Sulforhodamine B (SRB) (Sigma, Oakville, ON, Canada) is a water-soluble dye that binds to the basic amino acids of the cellular proteins. Thus, colorimetric measurement of the bound dye provides an estimate of the total protein mass that is related to the cell number. The cells were fixed in situ by gently aspirating off the culture media and adding 50 ul of cold 10% Tri-chloroacetic Acid (TCA) per well and incubated at 4° C. for 30-60 min. The plates were washed five times with water and allowed to air dry for 5 min. 50 ul of 0.4% (w/v) SRB dissolved in 1% (v/v) acetic acid were added into each well, plates were then incubated at RT for 30 min for staining, washed four times with 1% acetic acid to remove any unbound dye and then allowed to air dry for 5 min. Stain was solubilized with 100 ul of 10 mM Tris pH 10.5 per well. Absorbance was read at 570 nm on a spectrophotometer. GI50 (compound concentration required for 50% of growth inhibition) was calculated using GraphPad Prism 4.0 software (GraphPad Software, Inc., San Diego, Calif., USA). Growth inhibition (%) was determined as percentage of cells remaining compared to the DMSO-treated cells as control.

MCF-7 = test: Cancer cell growth inhibition, SRB assay; format: cell-based, human; design: Percentage of Growth Inhibition: scale not given here; conditions: MCF-7; at 10 μM; SRB at Day 6; NE = no activity at 10 micromolar
Description: as §1, §2, §3

A172 = test: Cancer cell growth inhibition, SRB assay; format: cell-based, human; conditions: A172; at 10 μM; SRB at Day 6; NE = no activity at 10 micromolar
Description: as §1, §2, §3

COLO-205 = test: Cancer cell growth inhibition, SRB assay; format: cell-based, human; conditions: COLO-205; at 10 μM; SRB at Day 6; NE = no activity at 10 micromolar
H358 = test: Cancer cell growth inhibition, SRB assay; format: cell-based, human; design: Percentage of Growth Inhibition: unit not given here; conditions: H358; at 10 μM; SRB at Day 6; NE = no activity at 10 micromolar
Description: as §1, §2, §3

human CPT1A = target: T1, human CPT1A (Homo sapiens, UniProt P50416); test: Human CPT1A LC/MS assay; format: biochemical
T1 construct: made in house; host or cells: Saccharomyces cerevisiae (pESC-trp) or cultured mammalian cells (pCDNA3.1); mitochondrial extract
T1 sequence (P50416 1-773): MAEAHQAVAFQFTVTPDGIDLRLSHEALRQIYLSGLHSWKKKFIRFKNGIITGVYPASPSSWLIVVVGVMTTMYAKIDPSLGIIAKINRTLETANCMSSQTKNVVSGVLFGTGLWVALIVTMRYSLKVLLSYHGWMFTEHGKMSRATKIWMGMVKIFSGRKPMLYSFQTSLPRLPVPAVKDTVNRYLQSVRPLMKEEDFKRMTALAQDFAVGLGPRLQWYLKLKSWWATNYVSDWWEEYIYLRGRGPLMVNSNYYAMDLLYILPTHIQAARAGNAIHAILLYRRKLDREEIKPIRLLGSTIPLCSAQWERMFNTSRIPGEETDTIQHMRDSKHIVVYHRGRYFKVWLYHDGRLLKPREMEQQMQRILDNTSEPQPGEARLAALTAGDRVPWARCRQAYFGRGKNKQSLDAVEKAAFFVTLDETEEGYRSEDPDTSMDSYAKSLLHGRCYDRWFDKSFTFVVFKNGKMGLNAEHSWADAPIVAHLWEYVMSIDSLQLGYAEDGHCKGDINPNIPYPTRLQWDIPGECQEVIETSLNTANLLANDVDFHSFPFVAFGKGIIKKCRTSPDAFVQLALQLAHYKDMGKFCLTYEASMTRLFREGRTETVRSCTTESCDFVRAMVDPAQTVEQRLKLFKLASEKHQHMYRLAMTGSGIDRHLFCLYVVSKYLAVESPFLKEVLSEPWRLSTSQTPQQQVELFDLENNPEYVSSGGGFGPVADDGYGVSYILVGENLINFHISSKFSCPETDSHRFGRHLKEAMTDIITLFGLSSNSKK
Text: Nucleotide sequences encoding human CPT1 enzymes were individually cloned into the yeast expression vector pESC-trp at the Cla1 (5′ terminus) and Pac1 (3′ terminus) restriction sites by PCR amplification of the open reading frame using oligonucleotide primers designed to encode the wild-type CPT1 protein sequence. Standard molecular biology techniques were used to transform and express the CPT1 proteins in the yeast Saccharomyces cerevisiae. The yeast cells were lysed by enzymatic degradation of the cell wall by Zymolase, and the mitochondria were isolated by standard biochemical techniques. The integrity of the isolated mitochondria was monitored by determining the activity of succinate dehydrogenase in the mitochondrial preparations. The mitochondrial extracts were stored at −80° C. in buffer containing 10 mM HEPES pH 7.4 and 250 mM sucrose.
Human CPT1 (A, B, C) genes were additionally cloned into the pCDNA3.1 vector individually for expression in cultured mammalian cells. Cells expressing the exogenous CPT1A were identified and grown under standard conditions. Mammalian cells were harvested, and mitochondrial extracts prepared using standard biochemical methods. The mitochondrial extracts were stored at −80° C. in buffer containing 10 mM HEPES pH 7.4 and 250 mM sucrose.
Assays were performed in 96-well plate format. Each 100 μL reaction contained 40 mM KCl, 50 mM TrisHCl pH 7.5, and 250 mM mannitol (Assay Buffer), and 1.6 μg protein of an extract, 20 μM palmitoyl-CoA, 50 μM L-carnitine, and 10 ug/mL BSA. Reactions were incubated at room temperature and stopped after 10 minutes by extraction with 200 μL of water saturated n-butanol containing myristoyl carnitine (500 nM) as an internal standard. The samples were thoroughly mixed, and the phases separated by centrifugation. Samples were prepared for analysis with a 10 fold dilution of the n-butanol phase containing the reaction product palmitoyl carnitine into a 50:50 (acetonitrile:water) solvent for analysis. 5 μL of prepared sample was separated on a Phenomenex Jupiter 5μ C4 reverse-phase column using an Agilent 1100 HPLC with a gradient from 50% acetonitrile (0.5% acetic acid) to 100% acetonitrile and quantified by detection with a Bruker Esquire 3000plus mass spectrometer. The abundance of the palmitoyl carnitine product was determined relative to the internal standard and the actual quantity of palmitoyl carnitine can be determined from a standard curve prepared using the n-butanol solution containing the internal standard.
Compounds were evaluated in two formats, a screening format, and a dose response format. The screening format was performed by adding 25 μL compound in 20% DMSO and Assay Buffer to 25 μL of extract containing […] and Assay Buffer, followed by a 10 minute incubation at room temperature. 50 μL of 40 μM palmitoyl-CoA in Assay Buffer was added to the reaction mixture, mixed and incubated for 10 minutes at room temperature. A negative control for activity was also performed where the carnitine was omitted from the reaction. A positive control for activity was also performed by omitting compound from the solution containing 20% DMSO and Assay Buffer. The reaction mixture was extracted and analyzed as described above. The inhibition by compound was determined by comparing the control relative activity to the relative activity observed in wells containing the compound. Relative activity was determined by subtracting the relative intensity (area palmitoyl carnitine/area myristoyl carnitine) observed in the negative control from the relative intensity observed in the experimental well, and dividing by the relative activity observed in the positive control.
[formula] Compound characterization by dose response format was performed using the above described assay conditions and a 16 point compound titration in 2 fold compound dilution steps. The DMSO concentration was kept constant at 20% (v/v) for all compound concentrations.

HCT-15 = test: Cancer cell growth inhibition, SRB assay; format: cell-based, human; design: Percentage of Growth Inhibition: scale not given here; conditions: HCT-15; at 10 μM; SRB at Day 6; NE = no activity at 10 micromolar
SW620 = test: Cancer cell growth inhibition, SRB assay; format: cell-based, human; design: Percentage of Growth Inhibition: scale not given here; conditions: SW620; at 10 μM; SRB at Day 6; NE = no activity at 10 micromolar
PC-3 = test: Cancer cell growth inhibition, SRB assay; format: cell-based, human; conditions: PC-3; at 10 μM; SRB at Day 6; NE = no activity at 10 micromolar
Description: as §1, §2, §3

SW480 = test: Cancer cell growth inhibition, SRB assay; format: cell-based, human; conditions: SW480; at 10 μM; SRB at Day 6; NE = no activity at 10 micromolar
[1] = human CPT1A LC/MS assay, dose response format

CCCCCc1ccc(S(=O)(=O)NC2(CC(=O)O)CCC[N+](C)(C)C2)cc1 (stereo not shown) [Example S12, 3-(carboxymethyl)-1,1-dimethyl-3-(4-pentylphenylsulfonamido)-piperidinium 2,2,2-trifluoroacetate]
Percentage of Growth Inhibition (SW626): 0.00486%
Percentage of Growth Inhibition (MCF-7): 0.2351%
Percentage of Growth Inhibition (A172): 0.07689%
Percentage of Growth Inhibition (COLO-205): 0.1281%
Percentage of Growth Inhibition (H358): 0.04495
IC50 (human CPT1A; [1]): ≤ 1 µM

CCCCCc1ccc(S(=O)(=O)NC2(CC(=O)O)CNC2)cc1 [Example S25, 3-(carboxymethyl)-3-(4-pentylphenylsulfonamido)azetidinium 2,2,2-trifluoroacetate]
Percentage of Growth Inhibition (SW626): 0.07606%
Percentage of Growth Inhibition (MCF-7): 0.1452%
Percentage of Growth Inhibition (HCT-15): 0.00572%
Percentage of Growth Inhibition (H358): 0.05754
IC50 (human CPT1A; [1]): > 2500 µM

CCCCCCCCc1ccc(NC(=O)NC2(CC(=O)O)CCN(C)CC2)cc1 [Example S1, 4-(carboxymethyl)-1-methyl-4-(3-(4-octylphenyl)ureido)piperidinium 2,2,2-trifluoroacetate]
Percentage of Growth Inhibition (SW620): 0.04345%
Percentage of Growth Inhibition (SW626): 0.05142%
Percentage of Growth Inhibition (MCF-7): 0.1204%
Percentage of Growth Inhibition (PC-3): 0.1924%
Percentage of Growth Inhibition (A172): 0.1571%
Percentage of Growth Inhibition (COLO-205): 0.07287%
Percentage of Growth Inhibition (SW480): 0.08459%
Percentage of Growth Inhibition (HCT-15): 0.05911%
Percentage of Growth Inhibition (H358): 0.4324

C[N+]1(C)CCCC(CC(=O)O)(NC(=O)c2ccc(CCc3ccccc3)o2)C1 (stereo not shown) [Example S14, 3-(carboxymethyl)-1,1-dimethyl-3-(5-phenethylfuran-2-carboxamido)piperidinium 2,2,2-trifluoroacetate]
Percentage of Growth Inhibition (SW620): 0.04122%
Percentage of Growth Inhibition (H358): 0.3919
IC50 (human CPT1A; [1]): 10 to 100 µM

C[N+](C)(C)C[C@H](N)CC(=O)[O-] [L-aminocarnitine, reference compound]
IC50 (human CPT1A; dose response assay, n=17): 7 ± 2.5 µM

CN1CCCC(CC(=O)O)(NC(=O)c2ccc(CCc3ccccc3)o2)C1 (stereo not shown) [Example S13, 3-(carboxymethyl)-1-methyl-3-(5-phenethylfuran-2-carboxamido)-piperidinium 2,2,2-trifluoroacetate]
IC50 (human CPT1A; [1]): 100 to 1000 µM

CCCCCc1ccc(S(=O)(=O)NC2(CC(=O)O)CCN(C)C2)cc1 (stereo not shown) [Example S19, 3-(carboxymethyl)-1-methyl-3-(4-pentylphenylsulfonamido)-pyrrolidinium 2,2,2-trifluoroacetate]
Percentage of Growth Inhibition (MCF-7): 0.08166%
IC50 (human CPT1A; [1]): 100 to 1000 µM

CCCCCCCCc1ccc(NC(=O)NC2(CC(=O)O)CCN(C)C2)cc1 (stereo not shown) [Example S17, 3-(carboxymethyl)-1-methyl-3-(3-(4-octylphenyl)ureido)pyrrolidinium 2,2,2-trifluoroacetate]
IC50 (human CPT1A; [1]): 10 to 100 µM
